Where “and” joins values, the source holds several entries; their conditions need not be identical. Equal entries are not always repeated.
Assays:
[1] = toxicokinetics in beagle dogs; assay type: in vivo
Text: (§1) Both patents are incorporated by reference herein in their entirety.

[2] = China Phase I trial of Compound A monotherapy: pharmacokinetics; assay type: in vivo, human
Experimental: (§2) The pharmacokinetics of Compound A was also evaluated.
(§3) Patients who met the following inclusion criteria were enrolled in the trials in China: i) age≥18 years, no gender limits, and provide the informed consent form; ii) B-cell lymphoma classification is based on WHO classified definition, including CLL, small lymphocytic lymphoma (SLL); CLL with 17p-; MCL; WM; DLBCL, etc.; iii) measurable lesion: NHL requires at least one≥2 cm two-dimensional lesion diameter, CLL≥5000 leukemia cells/mm^3, WM IgM≥1000 mg/dL, bone marrow lymph plasma-like cells infiltration, histopathologically diagnosed as DLBCL; iv) patients failed in lymphoma treatment at least once and have no standard therapeutic options; DLBCL patients who are not suitable for or reject autologous stem cell transplantation; and v) ECOG (Eastern Cooperative Oncology Group) performance status 0˜1. Meanwhile, patients who met any one of the following criteria were excluded: i) disease with changes of pathological tissue types (including large cell transformation); ii) patients received other BTK inhibitor therapy (China only); and iii) patients with HIV infection, or HBs-Ag or HBc-Ab positive.
(§4) No intrapatient dose escalation of Compound A was permitted.

[3] = tested on: relapsed/refractory B-cell lymphomas; test: China Phase I trial of Compound A monotherapy: efficacy; assay type: in vivo, human
Experimental: as §2, §3, §4

[4] = U.S. Phase Ia trial of Compound A monotherapy: safety
Experimental: Studies on the 200 mg and 300 mg cohorts were conducted in a standard 3+3 design.
Drug-related adverse events (AEs), including DLT, non-hematologic AEs and hematologic AEs were recorded. […] The PK indexes of single dose administration included AUClast, AUCO-∞, Cmax, tmax, t1/2, CL/F and Vd/F. The PK indexes of steady state under continuous administration included AUCss, Cmax,ss and tmax,ss.

[5] = tested on: 104 proteins (e.g., transporters, cell receptors, ion channels, and enzymes); test: off-target screenings against 104 proteins
Text: as §1

[6] = five patients, 21 day dosing schedule

In the case of `C=CC(=O)N1CC[C@@H](n2nc(-c3ccc(Oc4c(F)c(F)cc(F)c4F)cc3F)c3c(N)ncnc32)C1` [Compound A, 1-((R)-3-(4-amino-3-(2-fluoro-4-(2,3,5,6-tetrafluorophenoxy)phenyl)-1H-pyrazolo[3,4-d]pyrimidin-1-yl)pyrrolidin-1-yl)prop-2-en-1-one], the toxicokinetics properties [1] is reported as “Improved toxicokinetics properties”, the “Compound A Plasma Levels” value ([2]; Day 1, 100 mg, 2 h) is reported as 107 ng/mL and 150 ng/mL and the “Compound A Plasma Levels” value ([2]; Day 1, 100 mg, 6 h) is reported as 22.8 ng/mL and 29.4 ng/mL. For the same compound, the “Compound A Plasma Levels” value ([2]; Day 1, 400 mg, 4 h) was 243 ng/mL and 184 ng/mL, the “Compound A Plasma Levels” value ([2]; Day 1, 400 mg, 6 h) was 107 ng/mL and 130 ng/mL and the “Compound A Plasma Levels” value ([2]; Day 8, 100 mg, 2 h) was 135 ng/mL and 83.0 ng/mL. For the same compound, the “Compound A Plasma Levels” value ([2]; Day 8, 100 mg, 24 h) was 1.73 ng/mL and 1.27 ng/mL, the “Compound A Plasma Levels” value ([2]; Day 8, 200 mg, 0 h) was 5.13 ng/mL and 3.53 ng/mL and the “Compound A Plasma Levels” value ([2]; Day 8, 200 mg, 1 h) was 239 ng/mL. The “Compound A Plasma Levels” value ([2]; Day 8, 200 mg, 2 h) was 273 ng/mL and 295 ng/mL, the “Compound A Plasma Levels” value ([2]; Day 8, 400 mg, 4 h) was 214 ng/mL and 217 ng/mL and the concentration at 0 h ([2]; human, plasma, oral, 50 mg, Compound A Plasma Levels, Day 1, 50 mg, 0 h) was 0 ng/mL. The concentration at 24 h ([2]; human, plasma, oral, 50 mg, Compound A Plasma Levels, Day 1, 50 mg, 24 h) was 0 ng/mL, the concentration at 24 h ([2]; human, plasma, oral, 50 mg, Compound A Plasma Levels, Day 8, 50 mg, 24 h) was 0 ng/mL and the concentration at 0 h ([2]; human, plasma, oral, 100 mg, Compound A Plasma Levels, Day 1, 100 mg, 0 h) was 0 ng/mL. The concentration at 2 h ([2]; human, plasma, oral, 100 mg, Compound A Plasma Levels, Day 1, 100 mg, 2 h) was 192 ng/mL, the concentration at 6 h ([2]; human, plasma, oral, 100 mg, Compound A Plasma Levels, Day 1, 100 mg, 6 h) was 29.1 ng/mL and the concentration at 2 h ([2]; human, plasma, oral, 100 mg, Compound A Plasma Levels, Day 8, 100 mg, 2 h) was 166 ng/mL. For the same compound, the concentration at 24 h ([2]; human, plasma, oral, 100 mg, Compound A Plasma Levels, Day 8, 100 mg, 24 h) was 1.34 ng/mL, the concentration at 0 h ([2]; human, plasma, oral, 200 mg, Compound A Plasma Levels, Day 1, 200 mg, 0 h) was 0 ng/mL and the concentration at 0 h ([2]; human, plasma, oral, 200 mg, Compound A Plasma Levels, Day 8, 200 mg, 0 h) was 3.69 ng/mL. The concentration at 1 h ([2]; human, plasma, oral, 200 mg, Compound A Plasma Levels, Day 8, 200 mg, 1 h) was 369 ng/mL, the concentration at 2 h ([2]; human, plasma, oral, 200 mg, Compound A Plasma Levels, Day 8, 200 mg, 2 h) was 537 ng/mL and the concentration at 0 h ([2]; human, plasma, oral, 400 mg, Compound A Plasma Levels, Day 1, 400 mg, 0 h) was 0 ng/mL. The concentration at 4 h ([2]; human, plasma, oral, 400 mg, Compound A Plasma Levels, Day 1, 400 mg, 4 h) was 134 ng/mL, the concentration at 6 h ([2]; human, plasma, oral, 400 mg, Compound A Plasma Levels, Day 1, 400 mg, 6 h) was 85.9 ng/mL and the concentration at 4 h ([2]; human, plasma, oral, 400 mg, Compound A Plasma Levels, Day 8, 400 mg, 4 h) was 159 ng/mL. The response ([3]; FL patients (N=2)) was 1PR, 1SD, the “progressive disease after treatment” value ([3]; FL patients, first cycle) was “three FL patients experienced progressive disease” and the response ([3]; MZL patients (N=2)) was 1CR, 1SD. For the same compound, the response ([3]; WM patients (N=2)) was 2PR, the “discontinuation due to AEs and deaths” value ([4]; five patients) was “No patient discontinued study treatment due to AEs and no patient died on-study or within the 30-day follow-up period” and the “hematologic single patient events” value ([4]; five patients) was “Grade 3 thrombocytopenia and Grade 3 neutropenia”. The “non-hematologic single patient events” value ([4]; five patients) was “Grade 3 lung infection, bronchitis, myalgia, nausea, fatigue and purpura (all Grade 1)”, the “anemia, patients” value ([4]; five patients, 50-200 mg daily, 21 day dosing schedule) was 60% and the “arthralgia, patients” value [4, 6] was 40%. For the same compound, the “contusion, patients” value [4, 6] was 40%, the “grade of adverse events” value [4, 6] was “mostly Grade 1 and 2” and the “upper respiratory infection, patients” value [4, 6] was 40%. For the same compound, the tolerability ([4]; three additional patients, 300 mg) was “well tolerated” and the off-target inhibitory activities [5] was “no off-target inhibitory activities”.
